Test results from patent publication US9452986B2, “6-heteroaryloxy- or 6-aryloxy-quinoline-2-carboxamides and method of use” (AbbVie Inc., priority 2014, dated 2016).
pIC50: −log10 of the molar value. Read-outs that look alike come from different tables or passages of the source.

Assays:
osteoarthritic rats = assay: Osteoarthritic (OA) pain induced by sodium monoiodoacetate (MIA), hind limb grip force; assay type: in vivo, rat; settings: for inhibition in vivo at 30 mg/kg / inhibition in vivo at 10 mg/kg: Rattus norvegicus, 480 h, read-out: OA MPE; for inhibition in vivo at 10 mg/kg: OA dose 10 mg/kg
In short: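 Activity-induced pain was read as maximum compressive hind limb grip force, two sequential trials normalized to body weight, 20 days after intra-articular MIA (3 mg/rat) in male Sprague Dawley rats. Randomized, blinded dosing; effect expressed as return toward naïve-animal response relative to vehicle.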

[1] = tested on: spinal nerve ligated rats; assay: Rat spinal nerve ligation (SNL) model of neuropathic pain, paw withdrawal threshold; assay type: in vivo; settings: read-out: SNL MPE
Text: Rat Spinal Nerve Ligation (SNL) Model of Neuropathic Pain.
The male Sprague Dawley rats (Charles River Laboratories, Wilmington, Mass.), weighing 150-175 g at the time of surgery, were placed under isoflurane anesthesia and a 1.5 cm incision was made dorsal to the lumbosacral plexus. The paraspinal muscles (left side) were separated from the spinous processes, the left L5 and L6 spinal nerves isolated, and tightly ligated with 5-0 silk suture distal to the dorsal root ganglion. Care was taken to avoid ligating the L4 spinal nerve. Following spinal nerve ligation, a minimum of 7 days of recovery and no more than 3 weeks was allowed prior to the behavioral testing (mechanical sensitivity). Only rats with threshold scores ≦4.5 g were considered allodynic and utilized in pharmacological experiments.
Mechanical sensitivity was measured using calibrated von Frey filaments (Stoelting, Wood Dale, Ill.). […] The von Frey filaments were presented perpendicularly to the plantar surface of the selected hind paw, and then held in this position for approximately 8 seconds with enough force to cause a slight bend in the filament. Positive responses included an abrupt withdrawal of the hind paw from the stimulus, or flinching behavior immediately following removal of the stimulus. […] A percent maximal possible effect (% MPE) of testing compound was calculated according to the formula: (Log [compound−treated threshold]−Log [vehicle−treated threshold])/(Log [maximum threshold]−Log [vehicle−treated threshold])×100%, where the maximum threshold was equal to 15 g.
The animals were housed in Association for Assessment and Accreditation of Laboratory Animal Care (AAALAC) approved facilities at AbbVie Inc. in a temperature-regulated environment under a controlled 12-hour light-dark cycle, with lights on at 6:00 a.m. Food and water were available ad libitum at all times except during testing. All testing was done following procedures outlined in protocols approved by AbbVie Inc.s' Institutional Animal Care and Use Committee.

recombinant human Nav1.7 = recombinant human Nav1.7 (Homo sapiens (Human), UniProt Q15858); assay: FRET-based membrane potential assay, recombinant human sodium channel Nav1.7; assay type: cell-based; settings: read-out: FRET-Membrane Potential Nav1.7 IC50
In short: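 Channel activation used veratridine at its EC80, set by a dilution curve each experiment, together with Leiurus scorpion venom, added 3 min after compound. Membrane-potential ratio signals from FLIPR Tetra in HEPES-buffered HBSS were fitted to a four-parameter Hill equation for percent inhibition and IC50.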

recombinant human Nav1.8 = recombinant human Nav1.8 (Homo sapiens (Human), UniProt Q9Y5Y9); assay: FRET-based membrane potential assay, recombinant human sodium channel Nav1.8; assay type: cell-based
[2] = OA dose 30 mg/kg, rat, 20 days following MIA injection, hind limb grip force
[3] = HEK293 cells stably expressing recombinant human Nav1.7, veratridine + scorpion venom depolarization
[4] = HEK293 cells stably expressing recombinant human Nav1.8, veratridine + scorpion venom depolarization
[5] = rat, 20 days following MIA injection, hind limb grip force

Sequence of recombinant human Nav1.7 (Q15858 whole entry): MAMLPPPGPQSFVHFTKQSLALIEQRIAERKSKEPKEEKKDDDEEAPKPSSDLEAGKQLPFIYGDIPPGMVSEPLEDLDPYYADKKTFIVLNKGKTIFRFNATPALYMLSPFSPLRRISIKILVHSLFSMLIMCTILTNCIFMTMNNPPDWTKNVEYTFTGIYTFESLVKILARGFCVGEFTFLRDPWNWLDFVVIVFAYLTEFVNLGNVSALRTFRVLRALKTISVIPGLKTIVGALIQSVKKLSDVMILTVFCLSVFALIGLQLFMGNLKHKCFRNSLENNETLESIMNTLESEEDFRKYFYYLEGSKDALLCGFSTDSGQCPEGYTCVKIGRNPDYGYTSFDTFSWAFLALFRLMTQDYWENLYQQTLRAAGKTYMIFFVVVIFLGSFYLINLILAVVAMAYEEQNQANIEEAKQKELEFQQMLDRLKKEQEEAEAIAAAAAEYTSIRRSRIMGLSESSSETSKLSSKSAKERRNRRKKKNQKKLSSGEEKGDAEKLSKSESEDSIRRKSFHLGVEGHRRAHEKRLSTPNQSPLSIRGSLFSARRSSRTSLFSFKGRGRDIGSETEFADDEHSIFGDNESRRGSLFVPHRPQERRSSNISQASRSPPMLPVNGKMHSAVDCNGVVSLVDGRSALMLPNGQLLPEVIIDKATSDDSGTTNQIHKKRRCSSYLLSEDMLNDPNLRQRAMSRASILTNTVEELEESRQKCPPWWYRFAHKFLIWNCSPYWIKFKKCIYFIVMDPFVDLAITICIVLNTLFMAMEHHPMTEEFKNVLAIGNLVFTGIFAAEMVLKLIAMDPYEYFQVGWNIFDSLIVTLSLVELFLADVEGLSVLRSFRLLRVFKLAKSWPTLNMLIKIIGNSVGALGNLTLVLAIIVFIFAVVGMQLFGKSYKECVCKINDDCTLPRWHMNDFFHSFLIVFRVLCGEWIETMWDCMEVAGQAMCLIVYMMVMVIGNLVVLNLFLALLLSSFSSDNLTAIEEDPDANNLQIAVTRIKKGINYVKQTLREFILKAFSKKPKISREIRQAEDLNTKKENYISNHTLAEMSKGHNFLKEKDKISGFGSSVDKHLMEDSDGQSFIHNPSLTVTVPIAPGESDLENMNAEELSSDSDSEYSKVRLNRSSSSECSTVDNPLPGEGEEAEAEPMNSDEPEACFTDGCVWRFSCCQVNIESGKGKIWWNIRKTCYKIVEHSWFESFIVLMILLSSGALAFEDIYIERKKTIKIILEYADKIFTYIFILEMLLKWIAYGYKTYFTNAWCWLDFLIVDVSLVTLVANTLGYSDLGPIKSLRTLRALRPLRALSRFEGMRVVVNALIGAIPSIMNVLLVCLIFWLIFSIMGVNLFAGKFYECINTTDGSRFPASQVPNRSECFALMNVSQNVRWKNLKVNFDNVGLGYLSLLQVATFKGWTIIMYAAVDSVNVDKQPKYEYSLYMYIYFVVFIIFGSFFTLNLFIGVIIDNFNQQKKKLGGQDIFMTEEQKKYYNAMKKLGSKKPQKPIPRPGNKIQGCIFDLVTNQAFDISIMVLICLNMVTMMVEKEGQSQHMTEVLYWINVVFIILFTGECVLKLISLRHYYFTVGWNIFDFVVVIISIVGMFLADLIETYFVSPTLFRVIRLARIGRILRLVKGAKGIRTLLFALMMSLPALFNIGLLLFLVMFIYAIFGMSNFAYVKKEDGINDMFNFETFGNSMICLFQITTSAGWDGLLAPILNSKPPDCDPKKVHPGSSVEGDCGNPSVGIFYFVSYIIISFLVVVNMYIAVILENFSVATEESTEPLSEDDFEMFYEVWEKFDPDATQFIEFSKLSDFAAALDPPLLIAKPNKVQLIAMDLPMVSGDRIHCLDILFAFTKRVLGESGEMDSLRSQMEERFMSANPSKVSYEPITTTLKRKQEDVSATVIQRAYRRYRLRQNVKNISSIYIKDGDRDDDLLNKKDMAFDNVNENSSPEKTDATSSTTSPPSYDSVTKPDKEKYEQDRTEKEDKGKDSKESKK
Sequence of recombinant human Nav1.8 (Q9Y5Y9 whole entry): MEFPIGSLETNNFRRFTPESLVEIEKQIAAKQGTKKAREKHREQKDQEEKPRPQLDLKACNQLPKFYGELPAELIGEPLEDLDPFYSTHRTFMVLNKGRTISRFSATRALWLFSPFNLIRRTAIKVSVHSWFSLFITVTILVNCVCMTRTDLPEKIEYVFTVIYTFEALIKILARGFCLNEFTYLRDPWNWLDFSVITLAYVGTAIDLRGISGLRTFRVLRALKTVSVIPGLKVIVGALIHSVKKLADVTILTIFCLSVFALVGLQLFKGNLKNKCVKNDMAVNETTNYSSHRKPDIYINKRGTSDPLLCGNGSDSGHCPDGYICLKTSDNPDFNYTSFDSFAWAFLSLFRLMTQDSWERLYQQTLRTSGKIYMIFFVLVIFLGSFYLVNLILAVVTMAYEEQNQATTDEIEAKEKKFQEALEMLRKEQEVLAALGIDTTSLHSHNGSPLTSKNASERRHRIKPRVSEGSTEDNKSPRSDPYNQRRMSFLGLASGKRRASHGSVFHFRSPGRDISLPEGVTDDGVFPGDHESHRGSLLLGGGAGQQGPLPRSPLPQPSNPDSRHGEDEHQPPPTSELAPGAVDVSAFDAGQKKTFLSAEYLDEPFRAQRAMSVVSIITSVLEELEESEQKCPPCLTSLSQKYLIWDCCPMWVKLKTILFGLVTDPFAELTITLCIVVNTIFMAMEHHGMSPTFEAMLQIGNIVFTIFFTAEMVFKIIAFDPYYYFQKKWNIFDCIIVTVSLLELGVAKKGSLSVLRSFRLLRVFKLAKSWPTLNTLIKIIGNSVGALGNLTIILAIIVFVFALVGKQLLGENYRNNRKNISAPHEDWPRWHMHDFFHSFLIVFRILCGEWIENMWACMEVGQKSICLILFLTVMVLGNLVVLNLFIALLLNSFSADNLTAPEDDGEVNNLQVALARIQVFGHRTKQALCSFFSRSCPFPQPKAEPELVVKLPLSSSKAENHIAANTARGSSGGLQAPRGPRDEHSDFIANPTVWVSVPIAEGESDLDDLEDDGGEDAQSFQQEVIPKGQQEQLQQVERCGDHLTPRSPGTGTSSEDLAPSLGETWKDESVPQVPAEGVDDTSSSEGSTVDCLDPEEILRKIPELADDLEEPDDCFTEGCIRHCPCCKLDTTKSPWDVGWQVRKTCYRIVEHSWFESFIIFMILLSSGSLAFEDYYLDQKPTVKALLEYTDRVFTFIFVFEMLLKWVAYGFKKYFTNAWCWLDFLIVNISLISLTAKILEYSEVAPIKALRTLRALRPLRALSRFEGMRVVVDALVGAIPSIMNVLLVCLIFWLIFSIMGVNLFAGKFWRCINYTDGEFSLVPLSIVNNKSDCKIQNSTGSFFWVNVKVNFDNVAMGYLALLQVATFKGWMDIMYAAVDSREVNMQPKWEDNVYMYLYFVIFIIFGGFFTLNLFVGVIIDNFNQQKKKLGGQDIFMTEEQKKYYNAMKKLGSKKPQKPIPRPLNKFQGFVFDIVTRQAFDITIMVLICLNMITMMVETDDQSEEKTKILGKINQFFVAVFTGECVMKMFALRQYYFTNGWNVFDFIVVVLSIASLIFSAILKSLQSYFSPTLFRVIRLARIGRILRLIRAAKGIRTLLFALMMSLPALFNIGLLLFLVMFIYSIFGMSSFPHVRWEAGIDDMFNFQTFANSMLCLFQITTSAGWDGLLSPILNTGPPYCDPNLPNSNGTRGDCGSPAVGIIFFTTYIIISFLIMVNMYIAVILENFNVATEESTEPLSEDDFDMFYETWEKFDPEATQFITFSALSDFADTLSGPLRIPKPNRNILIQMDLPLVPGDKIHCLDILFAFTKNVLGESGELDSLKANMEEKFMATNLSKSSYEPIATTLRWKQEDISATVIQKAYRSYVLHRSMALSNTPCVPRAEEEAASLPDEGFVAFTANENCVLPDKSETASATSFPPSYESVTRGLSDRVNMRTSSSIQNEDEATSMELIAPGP

Row | Compound | inhibition in vivo at 30 mg/kg (osteoarthritic rats; [2]) [%] | pIC50 (recombinant human Nav1.7; [3]) | pIC50 (recombinant human Nav1.8; [4]) | inhibition in vivo at 10 mg/kg (osteoarthritic rats; [5]) [%] | also measured
1 | O=C(c1ccc2cc(Oc3ccc(C(F)(F)F)cn3)ccc2n1)N1CCNCC1 [Example 1, piperazin-1-yl(6-{[5-(trifluoromethyl)pyridin-2-yl]oxy}quinolin-2-yl)methanone] | 64 |  |  |  | inhibition in vivo at 100 mg/kg ([1]; SNL dose 100 mg/kg, rat, von Frey paw withdrawal threshold): 49%
2 | O=C(c1ccc2cc(Oc3ccc(C(F)(F)F)cn3)ccc2n1)N1CCCC1 [Example 10, pyrrolidin-1-yl(6-{[5-(trifluoromethyl)pyridin-2-yl]oxy}quinolin-2-yl)methanone] |  |  |  |  | inhibition in vivo at 30 mg/kg (osteoarthritic rats): 48%; inhibition in vivo at 100 mg/kg ([1]; Rattus norvegicus): 35%
3 | CC1(NC(=O)c2ccc3cc(Oc4ccc(C(F)(F)F)cn4)ccc3n2)COC1 [Example 48, N-(3-methyloxetan-3-yl)-6-{[5-(trifluoromethyl)pyridin-2-yl]oxy}quinoline-2-carboxamide] |  | 5.35 | 6.11 | 41 | 
4 | N[C@@H]1[C@H]2CN(C(=O)c3ccc4cc(Oc5ccc(C(F)F)cn5)ccc4n3)C[C@@H]12 [Example 49, meso-[(1R,5S,6s)-6-amino-3-azabicyclo[3.1.0]hex-3-yl](6-{[5-(difluoromethyl)pyridin-2-yl]oxy}quinolin-2-yl)methanone] |  | 5.64 | 6.15 |  | OA MPE (osteoarthritic rats; [2]): 58%
5 | O=C(c1ccc2cc(Oc3ccc(C(F)(F)F)cn3)ccc2n1)N1CCN2CC(F)(F)C[C@H]2C1 [Example 53, [(8aS)-7,7-difluorohexahydropyrrolo[1,2-a]pyrazin-2(1H)-yl](6-{[5-(trifluoromethyl)pyridin-2-yl]oxy}quinolin-2-yl)methanone] | 70 | 5.49 | 4.96 |  | 
6 | CC[C@@H]1CN(C(=O)c2ccc3cc(Oc4ccc(C(F)F)cn4)ccc3n2)CCN1 [Example 55, (6-{[5-(difluoromethyl)pyridin-2-yl]oxy}quinolin-2-yl)[(3R)-3-ethylpiperazin-1-yl]methanone] |  | 6.23 |  | 42 | pIC50 (recombinant human Nav1.8): 5.68
7 | COCCNC(=O)c1ccc2cc(Oc3ccc(C(F)(F)F)nc3)ccc2n1 [Example 56, N-(2-methoxyethyl)-6-{[6-(trifluoromethyl)pyridin-3-yl]oxy}quinoline-2-carboxamide] |  | 5.52 | 5.83 | 43 | 
8 | O=C(c1ccc2cc(Oc3ccc(OC(F)F)cn3)ccc2n1)N1CCNCC1 [Example 57, (6-{[5-(difluoromethoxy)pyridin-2-yl]oxy}quinolin-2-yl)(piperazin-1-yl)methanone] | 53 | 5.50 | 6.06 |  | 
9 | O=C1C[C@@H](NC(=O)c2ccc3cc(Oc4ccc(C(F)(F)F)cn4)ccc3n2)CN1 [Example 58, N-[(3R)-5-oxopyrrolidin-3-yl]-6-{[5-(trifluoromethyl)pyridin-2-yl]oxy}quinoline-2-carboxamide] | 64 | 5.99 | 5.55 |  | 
10 | CCN1CCC(N(CC)C(=O)c2ccc3cc(Oc4ccc(C(F)(F)F)cn4)ccc3n2)CC1=O (stereo not shown) [Example 61, N-ethyl-N-(1-ethyl-2-oxopiperidin-4-yl)-6-{[5-(trifluoromethyl)pyridin-2-yl]oxy}quinoline-2-carboxamide] |  | 6.25 | 5.94 | 61 | 
11 | C[C@@H]1CN(C(=O)c2ccc3cc(Oc4ccc(C(F)(F)F)nc4)ccc3n2)CCN1 [Example 62, [(3R)-3-methylpiperazin-1-yl](6-{[6-(trifluoromethyl)pyridin-3-yl]oxy}quinolin-2-yl)methanone] |  | 6.30 | 6.92 | -1 | 
12 | COC[C@H]1CN(C(=O)c2ccc3cc(Oc4ccc(C(F)(F)F)nc4)ccc3n2)CCN1 [Example 63, [(3R)-3-(methoxymethyl)piperazin-1-yl](6-{[6-(trifluoromethyl)pyridin-3-yl]oxy}quinolin-2-yl)methanone] |  | 6.01 |  | 15 | pIC50 (recombinant human Nav1.8): 5.94
13 | COC[C@@H]1CN(C(=O)c2ccc3cc(Oc4ccc(C(F)(F)F)nc4)ccc3n2)CCN1 [Example 64, [(3S)-3-(methoxymethyl)piperazin-1-yl](6-{[6-(trifluoromethyl)pyridin-3-yl]oxy}quinolin-2-yl)methanone] |  | 6.42 |  | 29 | pIC50 (recombinant human Nav1.8): 6.31
14 | CS(=O)(=O)CCCNC(=O)c1ccc2cc(Oc3ccc(C(F)(F)F)cn3)ccc2n1 [Example 65, N-[3-(methylsulfonyl)propyl]-6-{[5-(trifluoromethyl)pyridin-2-yl]oxy}quinoline-2-carboxamide] | 63 |  | 5.37 |  | pIC50 (recombinant human Nav1.7): 5.65
15 | NC1CN(C(=O)c2ccc3cc(Oc4ccc(C(F)(F)F)nc4)ccc3n2)C1 [Example 66, (3-amino azetidin-1-yl)(6-{[6-(trifluoromethyl)pyridin-3-yl]oxy}quinolin-2-yl)methanone] | 52 | 6.05 |  |  | pIC50 (recombinant human Nav1.8): 5.93
16 | CC1CN(C(=O)c2ccc3cc(Oc4ccc(C(F)F)cn4)ccc3n2)CC(C)N1 (stereo not shown) [Example 67, (6-{[5-(difluoromethyl)pyridin-2-yl]oxy}quinolin-2-yl)(3,5-dimethylpiperazin-1-yl)methanone] |  | 5.89 | 5.76 | 43 | 
17 | C[C@@H]1CN(C(=O)c2ccc3cc(Oc4ccc(C(F)F)cn4)ccc3n2)CCN1 [Example 68, (6-{[5-(difluoromethyl)pyridin-2-yl]oxy}quinolin-2-yl) [(3R)-3-methylpiperazin-1-yl]methanone] |  | 5.92 | 5.72 | 52 | 
18 | COC[C@@H]1CN(C(=O)c2ccc3cc(Oc4ccc(C(F)F)cn4)ccc3n2)CCN1 [Example 69, (6-{[5-(difluoromethyl)pyridin-2-yl]oxy}quinolin-2-yl)[(3S)-3-(methoxymethyl)piperazin-1-yl]methanone] |  | 6.05 | 5.63 | 2 | 
19 | O=C(c1ccc2cc(Oc3ccc(C(F)(F)F)cn3)ccc2n1)N1CC(N2CC[C@@H](F)C2)C1 [Example 70, {3-[(3R)-3-fluoropyrrolidin-1-yl]azetidin-1-yl}(6-{[5-(trifluoromethyl)pyridin-2-yl]oxy}quinolin-2-yl)methanone] |  |  |  | 23 | pIC50 (recombinant human Nav1.7): 5.90; pIC50 (recombinant human Nav1.8): 6.09
20 | COC[C@H]1CN(C(=O)c2ccc3cc(Oc4ccc(C(F)F)cn4)ccc3n2)CCN1 [Example 71, (6-{[5-(difluoromethyl)pyridin-2-yl]oxy}quinolin-2-yl) [(3R)-3-(methoxymethyl)piperazin-1-yl]methanone] |  | 5.74 | 5.79 | 33 | 
21 | O=C(c1ccc2cc(Oc3ccc(OC(F)(F)F)cn3)ccc2n1)N1CC[C@@H](F)C1 [Example 301, [(3R)-3-fluoropyrrolidin-1-yl](6-{[5-(trifluoromethoxy)pyridin-2-yl]oxy}quinolin-2-yl)methanone] | 58 | 5.51 | 5.85 |  | 
22 | O=C(NCC(F)(F)F)c1ccc2cc(Oc3ccc(C(F)F)cn3)ccc2n1 [Example 436, 6-{[5-(difluoromethyl)pyridin-2-yl]oxy}-N-(2,2,2-trifluoroethyl)quinoline-2-carboxamide] | 51 | 5.76 | 5.47 |  | 
23 | O=C(c1ccc2cc(Oc3ccc(C(F)(F)F)cn3)ccc2n1)N1CCC12COC2 [Example 505, 6-oxa-1-azaspiro[3.3]hept-1-yl(6-{[5-(trifluoromethyl)pyridin-2-yl]oxy}quinolin-2-yl)methanone] |  | 5.31 | 5.64 |  | inhibition in vivo at 30 mg/kg (osteoarthritic rats): 52%
24 | O=C(c1ccc2cc(Oc3ccc(C(F)(F)F)cn3)ccc2n1)N1CC(OCC(F)F)C1 [Example 619, [3-(2,2-difluoroethoxy)azetidin-1-yl](6-{[5-(trifluoromethyl)pyridin-2-yl]oxy}quinolin-2-yl)methanone] | 53 | 5.54 | 5.54 |  | 
